Here are results for one molecule from patent US6946475B1, “Anticancer calcium channel blockers” (University of Virginia Patent Foundation, priority 1999, dated 2005).

In assay [1] the test system is Ca2+ entry in LNCaP cells. In words: Measurement of intracellular Ca2+ concentration (Ca2+ entry), LNCaP cells. In kind it is cell-based, human. The procedure: Cells were incubated in growth media containing 1 μM of the acetoxy-methyl ester of the Ca^2+-sensitive fluorescent dye indo-1 (indo-1/AM, Molecular Probes, Eugene, Oreg.) for 1 hour at 37° C. Cells were washed three times in buffer A (10 mM HEPES, pH 7.4, 1 mM MgCl2, 3 mM KCl, 1 mM CaCl2, 140 mM NaCl, 0.1% glucose, 1% fetal bovine serum) and suspended to a final concentration of 10^6/ml. Prior to stimulation, cells were warmed to 37° C. Prior to stimulation, cells were also incubated with drug, calcium channel antagonists and the IC50 values were determined. Changes in [Ca^2+] were monitored in an SLM 8100C spectrofluorometer (SLM/Aminco, Urbana, Ill.) using previously published methods, Haverstick, et al. (1998) Cell Calcium, 23: 361-368; Densmore, et al. (1996) Am. J. Physiol., 271:C1494-1503, incorporated herein by reference.
Calcium influx into the cell is suitably stimulated using either (1) a physiological ligand or (2) an endoplasmic reticulum (ER) ATPase inhibitor. Preferably, a physiological ligand is used to stimulate calcium influx into the cell.
Endoplasmic Reticulum (ER) ATPase inhibitor, as used herein, is any compound which stimulates the release of calcium from the endoplasmic reticulum into the cytoplasm, which, in turn, activates calmodulin, which, in turn, activates calcium entry into the cell (for review of ER ATPase inhibitors, see Thastrup, O, Agents and Actions (1990), 29:8-15; Inesi and Sagara, Archives of Biochem. and Biophys., 298:313-7 and Darby, et al., Biological Signals (1993), 2:293-304). Preferred ER ATPase inhibitors include cyclopiazonic acid (available from Sigma, St. Louis, Mo.) and thapsigargin (available from Sigma).
TH-1177 blocked capacitative Ca^2+ entry in human prostate cancer cells. In electrically non-excitable cells, Ca^2+ influx is triggered by release of Ca^2+ from its internal storage depot by a phenomenon that has been called “capacitative”Ca^2+ entry (Putney, J. W., Jr. (1986) Cell Calcium, 7:1-12; Haverstick, et al. (1993) Mol. Biol. Cell, 4: 173-184; Kohn, et al. Proc. Natl. Acad. Sci. USA, 92: 1307-1311, incorporated herein by reference). Capacitative entry can be initiated by treatment of cells with thapsigargin. Thapsigargin inhibits the Ca^2+-ATPase of the endoplasmic reticulum allowing uncompensated leak of Ca^2+ from this compartment into the cytosol thereby causing Ca^2+ entry in the absence of engagement of a specific receptor. (Thastrup, et al. (1990) Proc. Natl. Acad. Sci. USA, 87: 2466-2470; Takemura, et al. (1989) J. Biol. Chem. 264: 12266-12271, incorporated herein by reference).
The P2 purinergic receptor is linked to activation of the Ca^2+ entry pathway in many types of cells including prostate cancer cells (Fang, et al. (1992) J. Clin. Invest. 89: 191-196). […]

In assay [2] the test system is HCT-116 (colon cancer cell). In words: Measurement of cellular proliferation, HCT-116 cells. The note with it: HCT 116, 48 hours. In kind it is cell-based. As for the experimental part: (§1) Measurement of cellular proliferation: LNCaP cells at 2.5×10^4/well or PC3 cells at 5×10^4/well, both in a final volume of 100 μl, were plated in triplicate in standard flat bottom 96 well tissue culture plates in the presence of drug or vehicle (DMSO). Unless otherwise indicated, cells were grown for 48 hours at 37° C. in a CO2 incubator. Relative cell growth was determined with the CellTiter 96 aqueous cell proliferation assay (Promega, Madison, Wis.) as described by the manufacturer using an automated plate reader. Results were calculated in a blinded fashion and are means of triplicate determinations.
(§2) For the 48 hour proliferation, cells were cultured with calcium channel antagonists or without calcium channel antagonists. The IC50 values of the calcium channel antagonists were determined.
(§3) Using the measurement cell proliferation assay described hereinabove, the cell lines Jurkat, LNCap (prostate cancer cell), PC-31 (prostate cancer cell), DU145 (prostate cancer cell), MDA-468 (breast cancer cell), MDA-36 (Breast cancer cell), MCF-7 (breast cancer cell), MIA PaCa-2 (pancreatic cancer cell), Hep G2 (liver cancer cell), A549 (non-small cell lung cancer cells), NCI H460 (non-small cell lung cancer cells), HT-29 (colon cancer cell), HCT-116 (colon cancer cell) and SK OV-3 (ovarian cancer cell) were cultured in the presence of TH-1177, TH-1205, TH-1201, TH-2109, TH-2029, TH-2043, TN-2085 and TH-2279.

The subject of a further assay is Jurkat cells. Nature of the assay: Measurement of cellular proliferation, Jurkat cells. To be noted: Jurkat, 48 hours; read-out: PROLIFERATION IC50 Jurkat. The format is cell-based. As for the experimental part: as §1, §2, §3
For assay [3], the system named is Hep G2 (liver cancer cell). In words: Measurement of cellular proliferation, Hep G2 cells. The format is cell-based. The note with it: Hep G2, 48 hours. As for the experimental part:
as §1, §2, §3

With `COc1ccc(CCN2CCC[C@H]2COC(c2ccccc2)c2ccc(Cl)cc2)cc1` (stereo partly shown) [TH-1177], the IC50 in assay [1] (EGTA chelation of extracellular Ca2+ considered 100% inhibition, read-out: IC50 for blocking Ca2+ entry, LNCaP cells) is 3 µM; in assay [2], 37 µM; in the assay on Jurkat cells, 8 µM; in assay [3], 32 µM. For the same molecule, the “Effect on increase in [Ca2+]i stimulated by thapsigargin” value in assay [1] (LNCaP, 300 nM thapsigargin, drug added before stimulus) was “dose dependent inhibition”. In addition, the “Effect on rise in [Ca2+]i stimulated by ATP” value in assay [1] (LNCaP, 1 mM ATP, 10 μM TH-1177 added prior) is on record as “inhibited”. Further, the “Effect on release of Ca2+ from the internal storage pool” value in assay [1] (LNCaP, EGTA in medium, 1 mM ATP) is “no effect”.
